Laboratory results reported in the supplement of paper PMC10307832.

Experiments:
Assay in all cases: relative viability (nuclei count vs DMSO), 5 days (fraction); higher = more cells survive
Metformin + Lapatinib = compound: CN(C)C(=N)NC(=N)N [Metformin] + CS(=O)(=O)CCNCc1ccc(-c2ccc3ncnc(Nc4ccc(OCc5cccc(F)c5)c(Cl)c4)c3c2)o1 [Lapatinib] (partner 2 µM)
Outline: (§1)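 Five library-drug doses in √10 steps were combined with a fixed anchor-drug dose, or a single drug was given alone, by pin tool to lung cancer cell lines in 1536-well plates the day after seeding. Nuclei were stained and counted after 5 days. Relative viability is the nuclei count in treated wells over that in vehicle wells, taken as the median of duplicate plates.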

Apatinib + Alpelisib = compound: N#CC1(c2ccc(NC(=O)c3cccnc3NCc3ccncc3)cc2)CCCC1 [Apatinib] + Cc1nc(NC(=O)N2CCC[C@H]2C(N)=O)sc1-c1ccnc(C(C)(C)C(F)(F)F)c1 [Alpelisib] (partner 2 µM)
Outline: as §1

Apatinib + Olaparib = compound: N#CC1(c2ccc(NC(=O)c3cccnc3NCc3ccncc3)cc2)CCCC1 [Apatinib] + O=C(c1cc(Cc2n[nH]c(=O)c3ccccc23)ccc1F)N1CCN(C(=O)C2CC2)CC1 [Olaparib] (partner 8 µM)
Outline: as §1

Apatinib + Tozasertib = compound: N#CC1(c2ccc(NC(=O)c3cccnc3NCc3ccncc3)cc2)CCCC1 [Apatinib] + Cc1cc(Nc2cc(N3CCN(C)CC3)nc(Sc3ccc(NC(=O)C4CC4)cc3)n2)n[nH]1 [Tozasertib] (partner 0.1 µM)
Outline: as §1

Cell Line	relative viability (Metformin + Lapatinib; first compound 31.62 µM)	relative viability (Metformin + Lapatinib; first compound 100 µM)	relative viability (Metformin + Lapatinib; first compound 316.23 µM)	relative viability (Metformin + Lapatinib; first compound 1000 µM)	relative viability (Apatinib + Alpelisib; first compound 0.08 µM)	relative viability (Apatinib + Alpelisib; first compound 0.253 µM)	relative viability (Apatinib + Alpelisib; first compound 0.8 µM)	relative viability (Apatinib + Alpelisib; first compound 2.53 µM)	relative viability (Apatinib + Alpelisib; first compound 8 µM)	relative viability (Apatinib + Olaparib; first compound 0.08 µM)	relative viability (Apatinib + Olaparib; first compound 0.253 µM)	relative viability (Apatinib + Olaparib; first compound 0.8 µM)	relative viability (Apatinib + Olaparib; first compound 2.53 µM)	relative viability (Apatinib + Olaparib; first compound 8 µM)	relative viability (Apatinib + Tozasertib; first compound 0.08 µM)	relative viability (Apatinib + Tozasertib; first compound 0.253 µM)	relative viability (Apatinib + Tozasertib; first compound 0.8 µM)	relative viability (Apatinib + Tozasertib; first compound 2.53 µM)	relative viability (Apatinib + Tozasertib; first compound 8 µM)	relative viability (Metformin + Lapatinib; first compound 10 µM)
NCI-H1792	0.87	1.03	0.795	0.864	0.794	0.743	0.68	0.641	0.553	0.416	0.588	0.341	0.224	0.216	–	–	–	–	–	–
NCI-H2342	–	–	–	–	–	–	–	–	–	0.419	0.477	0.457	0.438	0.368	0.527	0.492	0.53	0.455	0.373	–
NCI-H1648	–	–	–	–	–	–	–	–	–	0.934	0.854	0.761	0.501	0.433	0.484	0.346	0.563	0.366	0.197	–
EBC-1	0.181	0.23	0.281	0.248	0.844	0.935	0.88	0.734	0.404	0.76	0.698	0.65	0.588	0.472	–	–	–	–	–	0.182
NCI-H1703	1.46	1.15	1.05	1.05	0.289	0.252	0.25	0.175	0.17	0.512	0.21	0.173	0.159	0.138	–	–	–	–	–	1.71
NCI-H1563	0.912	1.02	0.924	0.783	0.967	0.982	0.929	0.93	0.804	–	–	–	–	–	–	–	–	–	–	0.999
NCI-H1623	–	–	–	–	–	–	–	–	–	–	–	–	–	–	0.45	0.454	0.451	0.417	0.407	–
Calu-6	1.03	0.979	0.913	1.03	1.02	1.12	0.956	0.895	0.73	0.618	0.648	0.541	0.426	0.393	–	–	–	–	–	0.864
NCI-H1299	1.03	1.04	1.01	0.999	1.06	1.05	1.03	1.04	0.929	1.03	1.01	0.927	0.873	0.638	–	–	–	–	–	0.973
A549	0.934	0.909	0.722	0.923	0.784	0.844	0.919	0.78	0.65	0.329	0.382	0.414	0.367	0.302	–	–	–	–	–	0.946
NCI-H522	–	–	–	–	–	–	–	–	–	0.667	0.644	0.615	0.692	0.584	0.48	0.487	0.693	0.504	0.567	–
NCI-H1650	0.844	0.949	0.707	0.648	–	–	–	–	–	0.827	0.787	0.799	0.761	0.696	–	0.334	0.329	0.257	0.26	0.699
NCI-H441	–	–	–	–	0.872	0.82	0.752	0.726	0.421	0.684	0.612	0.505	0.561	0.367	0.672	0.569	0.538	0.533	0.428	–
